Measured values as given in the supplement of paper PMC10307832.

What was measured:
Experiment in all cases: relative viability (nuclei count vs DMSO), 5 days (fraction); higher = more cells survive
[1] = compound: Nc1ccccc1NC(=O)c1ccc(CNC(=O)OCc2cccnc2)cc1 [Entinostat] + CC1(C)CCC(c2ccc(Cl)cc2)=C(CN2CCN(c3ccc(C(=O)NS(=O)(=O)c4ccc(N[C@H](CCN5CCOCC5)CSc5ccccc5)c(S(=O)(=O)C(F)(F)F)c4)cc3)CC2)C1 [Navitoclax] (partner 0.5 µM)
Method in brief: (§1)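 Relative viability divides the nuclei count in treated wells by that in vehicle wells. Lung cancer cell lines were seeded in 1536-well plates, dosed by pin tool the next day, and fixed and stained after 5 days in one step with final 0.05% Triton X-100, 1% formaldehyde and 1 ug/ml Hoechst. Dosing was a single drug or a fixed anchor-drug dose plus five library-drug doses (not always all listed) in √10 steps, and values are medians of duplicate plates imaged at 4×.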

[2] = compound: Nc1ccccc1NC(=O)c1ccc(CNC(=O)OCc2cccnc2)cc1 [Entinostat] + Cc1nc(Nc2ncc(C(=O)Nc3c(C)cccc3Cl)s2)cc(N2CCN(CCO)CC2)n1 [Dasatinib] (partner 0.075 µM)
Method in brief: as §1

[3] = compound: Nc1ccccc1NC(=O)c1ccc(CNC(=O)OCc2cccnc2)cc1 [Entinostat] + Nc1nc2[nH]cc(CCc3ccc(C(=O)N[C@@H](CCC(=O)O)C(=O)O)cc3)c2c(=O)[nH]1 [Pemetrexed] (partner 0.2 µM)
Method in brief: as §1

[4] = compound: Nc1ccccc1NC(=O)c1ccc(CNC(=O)OCc2cccnc2)cc1 [Entinostat] + COc1cc2c(Oc3ccc(NC(=O)C4(C(=O)Nc5ccc(F)cc5)CC4)cc3F)ccnc2cc1OCCCN1CCOCC1 [Foretinib] (partner 0.25 µM)
Method in brief: as §1

| Cell Line | relative viability ([1]; first compound 0.02 µM) | relative viability ([1]; first compound 0.06325 µM) | relative viability ([1]; first compound 0.2 µM) | relative viability ([1]; first compound 0.6325 µM) | relative viability ([1]; first compound 2 µM) | relative viability ([2]; first compound 0.02 µM) | relative viability ([2]; first compound 0.06325 µM) | relative viability ([2]; first compound 0.2 µM) | relative viability ([2]; first compound 0.6325 µM) | relative viability ([2]; first compound 2 µM) | relative viability ([3]; first compound 0.02 µM) | relative viability ([3]; first compound 0.06325 µM) | relative viability ([3]; first compound 0.2 µM) | relative viability ([3]; first compound 0.6325 µM) | relative viability ([3]; first compound 2 µM) | relative viability ([4]; first compound 0.02 µM) | relative viability ([4]; first compound 0.06325 µM) | relative viability ([4]; first compound 0.2 µM) | relative viability ([4]; first compound 0.6325 µM) | relative viability ([4]; first compound 2 µM) |
| --- | --- | --- | --- | --- | --- | --- | --- | --- | --- | --- | --- | --- | --- | --- | --- | --- | --- | --- | --- | --- |
| 201T | 1.2 | 1.16 | 1.1 | 0.959 | 0.779 | 0.651 | 0.559 | 0.58 | 0.421 | 0.313 | 0.37 | 0.33 | 0.379 | 0.287 | 0.279 | 1.12 | 1.22 | 1.2 | 0.958 | 0.453 |
| A549 | 1.22 | 1.21 | 1.07 | 0.787 | 0.395 | – | – | – | – | – | – | – | – | – | – | 1.01 | 0.942 | 0.878 | 0.757 | 0.288 |
| A-427 | 1.05 | 1.01 | 0.958 | 0.715 | 0.669 | 0.707 | 0.679 | 0.614 | 0.525 | 0.442 | 1.03 | 0.971 | 0.922 | 0.904 | 0.765 | 1.2 | 1.16 | 1.06 | 1 | 0.811 |
| ABC-1 | – | – | – | – | – | 0.47 | 0.751 | 0.663 | 0.51 | 0.486 | – | – | – | – | – | 1.05 | 1.19 | 0.906 | 0.805 | 0.545 |
| Calu-6 | 0.761 | 0.859 | 0.774 | 0.524 | 0.308 | – | – | – | – | – | – | – | – | – | – | 0.889 | 0.849 | 0.873 | 0.565 | 0.513 |
| EBC-1 | 0.422 | 0.326 | 0.287 | 0.184 | 0.15 | – | – | – | – | – | – | – | – | – | – | 0.0998 | 0.0994 | 0.101 | 0.0814 | 0.0684 |
| HCC-44 | 1.02 | 0.826 | 0.418 | 0.403 | 0.235 | – | – | – | – | – | 0.63 | 0.604 | 0.631 | 0.562 | 0.564 | – | – | – | – | – |
| IA-LM | 0.802 | 0.861 | 0.898 | 0.685 | 0.378 | – | – | – | – | – | – | – | – | – | – | 1.13 | 1.22 | 1.43 | 1.05 | 0.764 |
| LCLC-103H | – | – | – | – | – | 0.478 | 0.458 | 0.48 | 0.362 | 0.224 | 0.472 | 0.463 | 0.443 | 0.454 | 0.426 | 0.802 | 0.66 | 0.612 | 0.666 | 0.384 |
| NCI-H358 | – | – | – | – | – | 0.181 | 0.136 | 0.158 | 0.115 | 0.109 | 0.163 | 0.168 | 0.158 | 0.128 | 0.135 | 0.755 | 0.81 | 0.66 | 0.41 | 0.124 |
| NCI-H522 | – | – | – | – | – | 0.882 | 1.14 | 1.16 | 1.23 | 0.795 | 0.848 | 1.21 | 1.12 | 1.04 | 0.774 | – | – | – | – | – |
| NCI-H650 | – | – | – | – | – | 0.496 | 0.498 | 0.455 | 0.357 | 0.26 | 0.952 | 0.951 | 0.833 | 0.794 | 0.353 | 1.16 | 0.933 | 1.04 | 0.839 | 0.477 |
| NCI-H661 | – | – | – | – | – | 1.04 | 0.967 | 1.03 | 0.771 | 0.372 | 0.886 | 0.916 | 0.814 | 0.663 | 0.354 | 0.929 | 0.963 | 0.923 | 0.697 | 0.575 |
| NCI-H727 | 0.443 | 0.356 | 0.312 | 0.177 | 0.163 | 0.475 | 0.419 | 0.412 | 0.219 | 0.273 | – | – | – | – | – | 0.753 | 0.782 | 0.794 | 0.679 | 0.521 |
| NCI-H1299 | 1.05 | 1.01 | 1.05 | 0.936 | 0.763 | – | – | – | – | – | – | – | – | – | – | 1.07 | 1.07 | 1.01 | 0.855 | 0.879 |
| NCI-H1563 | – | – | – | – | – | 0.465 | 0.48 | 0.438 | 0.461 | 0.42 | 0.77 | 0.906 | 0.837 | 0.826 | 0.679 | 0.543 | 0.918 | 0.823 | 0.77 | 0.609 |
| NCI-H1623 | – | – | – | – | – | 0.644 | 0.525 | 0.478 | 0.412 | 0.366 | – | – | – | – | – | 0.862 | 0.84 | 0.766 | 0.512 | 0.375 |
| NCI-H1648 | – | – | – | – | – | – | – | – | – | – | 0.736 | 0.685 | 0.772 | 0.38 | 0.407 | – | – | – | – | – |
| NCI-H1703 | 1.22 | 1.21 | 1.37 | 1.05 | 0.575 | – | – | – | – | – | – | – | – | – | – | 0.322 | 0.346 | 0.49 | 0.812 | 0.688 |
| NCI-H1792 | 0.729 | 0.674 | 0.576 | 0.535 | 0.222 | 0.692 | 0.802 | 0.825 | 0.452 | 0.402 | 0.844 | 0.765 | 0.896 | 0.374 | 0.191 | – | – | – | – | – |
| NCI-H2342 | – | – | – | – | – | 0.305 | 0.319 | 0.291 | 0.274 | 0.278 | 0.811 | 0.849 | 0.708 | 0.638 | 0.668 | 1.04 | 1.22 | 0.947 | 0.924 | 0.787 |
| SW 900 | – | – | – | – | – | 0.795 | 0.589 | 0.661 | 0.444 | 0.248 | 0.529 | 0.51 | 0.448 | 0.489 | 0.43 | 0.946 | 0.878 | 1.04 | 0.674 | 0.533 |
